The values that follow are results of earlier work, collected in patent US20090082349A1, “THIAZOLONES FOR USE AS PI3 KINASE INHIBITORS” (priority 2006, published 2009).

Data set [1] deals with Class I PI3-kinases. The note with it: each of the four Class I PI3-kinases.
Data set [2] has as its target CK2 protein kinase (Homo sapiens, UniProt P68400).

Read-outs that look alike come from different tables or passages of the source.

CK2 protein kinase, sequence (P68400 whole entry): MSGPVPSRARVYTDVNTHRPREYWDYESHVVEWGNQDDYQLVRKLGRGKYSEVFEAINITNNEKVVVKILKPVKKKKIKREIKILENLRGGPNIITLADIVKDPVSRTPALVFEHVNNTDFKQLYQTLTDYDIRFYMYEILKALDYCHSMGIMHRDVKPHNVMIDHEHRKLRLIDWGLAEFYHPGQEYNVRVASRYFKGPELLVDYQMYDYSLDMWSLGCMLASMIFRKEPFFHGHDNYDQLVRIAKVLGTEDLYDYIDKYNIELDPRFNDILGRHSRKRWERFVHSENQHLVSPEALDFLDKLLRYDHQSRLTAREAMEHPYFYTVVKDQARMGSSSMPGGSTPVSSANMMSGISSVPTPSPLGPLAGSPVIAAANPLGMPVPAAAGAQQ

As usually defined, the IC50 is the concentration at which inhibition is half-maximal. On to `COC[C@H]1OC(=O)c2coc3c2[C@@]1(C)C1=C(C3=O)[C@@H]2CCC(=O)[C@@]2(C)C[C@H]1OC(C)=O` [wortmannin], for which the IC50 in data set [1] (read-out: IC50 against each of the various Class I PI3-kinases) is 0.001 to 0.01 µM.

Turning to `O=c1cc(N2CCOCC2)oc2c(-c3ccccc3)cccc12` [LY294002], the half-maximal inhibitory concentration (IC50) in data set [2] was 5 to 10 µM; in data set [1] (Fruman et al. 1998, read-out: IC50 against each of these PI3-kinases), 15 to 20 µM.
